Laboratory results reported in paper PMC9317966, “Structure-function analysis of the AMPK activator SC4 and identification of a potent pan AMPK activator” (Biochemical Journal, 2022).

Legend:
Assay type in all cases: biochemical
[1] = molecular target: T1, GST-α1β1γ1 AMPK in solution (Homo sapiens, UniProt Q13131+Q9Y478); test: In solution SAMS kinase assay, HEK293T/17-expressed GST-α1β1γ1 eluted from glutathione Sepharose; conditions: for EC50: 0-30 µM activator
T1 construct: triply transfected with full-length AMPK α1 or α2 (NH2-terminal GST fusion, pDEST27 vector); full-length AMPK α1 or α2 (NH2-terminal GST fusion, pDEST27 vector), β1 or β2 (COOH-terminal FLAG fusion, pcDNA3.1 vector); FLAG (C); made in house; host or cells: HEK293T/17 cells, transient triple transfection
T1 sequence (Q13131 whole entry, the tested form may be a part): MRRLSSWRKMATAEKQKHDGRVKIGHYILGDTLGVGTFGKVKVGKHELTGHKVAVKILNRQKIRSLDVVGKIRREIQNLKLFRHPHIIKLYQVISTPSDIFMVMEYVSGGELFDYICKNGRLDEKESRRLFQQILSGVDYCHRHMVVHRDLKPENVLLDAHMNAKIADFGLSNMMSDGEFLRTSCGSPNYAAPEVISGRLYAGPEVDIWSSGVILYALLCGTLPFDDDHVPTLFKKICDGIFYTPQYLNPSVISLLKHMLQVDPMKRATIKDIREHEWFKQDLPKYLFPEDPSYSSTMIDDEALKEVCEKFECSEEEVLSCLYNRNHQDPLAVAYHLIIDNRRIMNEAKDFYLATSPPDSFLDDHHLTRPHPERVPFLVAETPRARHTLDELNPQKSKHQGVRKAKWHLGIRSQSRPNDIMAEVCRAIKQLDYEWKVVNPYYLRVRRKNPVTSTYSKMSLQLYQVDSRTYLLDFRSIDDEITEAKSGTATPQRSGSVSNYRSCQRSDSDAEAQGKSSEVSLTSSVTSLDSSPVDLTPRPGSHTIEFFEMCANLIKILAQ
T1 sequence (Q9Y478 whole entry, the tested form may be a part): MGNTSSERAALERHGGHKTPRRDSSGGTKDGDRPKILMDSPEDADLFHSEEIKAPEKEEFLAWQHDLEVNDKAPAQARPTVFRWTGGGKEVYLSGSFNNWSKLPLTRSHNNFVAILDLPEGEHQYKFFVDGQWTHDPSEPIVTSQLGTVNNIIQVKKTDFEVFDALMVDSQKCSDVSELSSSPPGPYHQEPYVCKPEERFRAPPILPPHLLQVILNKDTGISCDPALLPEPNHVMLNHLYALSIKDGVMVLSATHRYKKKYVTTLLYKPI
T1 sequence (P54619 whole entry partner, the tested form may be a part): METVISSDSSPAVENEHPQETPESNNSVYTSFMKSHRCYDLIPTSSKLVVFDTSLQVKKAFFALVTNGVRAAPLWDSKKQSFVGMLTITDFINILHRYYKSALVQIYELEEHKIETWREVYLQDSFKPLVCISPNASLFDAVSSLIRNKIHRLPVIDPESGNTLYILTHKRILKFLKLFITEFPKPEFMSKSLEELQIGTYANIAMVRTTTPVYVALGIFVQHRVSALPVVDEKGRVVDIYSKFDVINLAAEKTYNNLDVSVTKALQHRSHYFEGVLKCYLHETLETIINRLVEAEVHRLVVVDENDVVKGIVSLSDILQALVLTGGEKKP
Experimental: (§1) Adherent HEK293T/17 cells at ∼50% confluency were triply transfected with full-length AMPK α1 or α2 (NH2-terminal GST fusion, pDEST27 vector), β1 or β2 (COOH-terminal FLAG fusion, pcDNA3.1 vector), and γ1, γ2 or γ3 (NH2-terminal HA fusion, pMT2 vector) in the presence of FuGENE HD transfection reagent (Promega) as per the manufacturers protocol. Cells were harvested 48 hours post-transfection by first gently washing in ice cold phosphate buffered saline (PBS; Sigma–Aldrich), then scraping in ice cold lysis buffer (50 mM TRIS pH 7.5, 150 mM NaCl, 10% (v/v) glycerol, 50 mM NaF, 5 mM sodium pyrophosphate, 1% (v/v) Triton X-100, cOmplete protease inhibitor cocktail). Lysates were clarified by centrifugation (16 000g, 3 min, 4°C), flash frozen in liquid N2 and stored at −80°C until analysis. For radioactive kinase assays, AMPK was immobilised on glutathione Sepharose 4B resin (GE Healthcare) by incubation with lysates for 1.5 h at 4°C. Following centrifugation (1000g, 3 min, 4°C), the resin was washed twice in purification buffer (50 mM HEPES pH 7.4, 150 mM NaCl, 10% (v/v) glycerol, 0.02% (v/v) Tween-20), once in 50 mM HEPES pH 7.4 with 0.02% (v/v) Tween-20, then resuspended to a 50% slurry with 50 mM HEPES pH 7.4 and 10 µl added to the activity assays. For in solution kinase assays, α1β1γ1 AMPK was eluted from glutathione-Sepharose by incubating with purification buffer supplemented with 40 mM reduced glutathione (Sigma–Aldrich).
(§2) AMPK activity was determined by phosphorylation of the SAMS peptide (Purar Chemicals, sequence: NH2-HMRSAMSGLHLVKRR-COOH) in a 25 µl reaction volume containing 100 µM SAMS peptide, 5 mM MgCl2, 200 µM ATP, [γ-^32P]-ATP (PerkinElmer) and assay buffer (50 mM HEPES pH 7.4, 1 mM DTT and 0.02% (v/v) Tween-20) and purified AMPK. Phosphotransferase activity was conducted at 30°C for 10 min and reactions were quenched by spotting 15 µl onto phosphocellulose ion-exchange chromatography paper (made in-house), followed by repeated washes in 1% H3PO4 (Merck Millipore). Ultima Gold liquid scintillation fluid (5 ml; PerkinElmer) was added to vials containing dried phosphocellulose papers, and the level of ^32P-transfer to the SAMS peptide was determined using a Tri-Carb 2900TR liquid scintillation counter (PerkinElmer).
⍺1β1γ1 – in solution E. coli-expressed ⍺2β1γ1 […]
log [compound] (M) log [compound] (M)
Compound EC (nM) Max. fold Compound EC50 (nM) Max. fold
Supplementary Figure 3. In solution activation kinetics for AMPK complexes. Related to Figure 2. Activities measured in the presence of 0-30 µM AMPK activators. […]

human GST-AMPK α1β2γ1 = molecular target: T2, human GST-AMPK α1β2γ1 (Homo sapiens, UniProt O43741+Q13131); test: Radiolabel SAMS kinase assay, GST-AMPK from HEK293T/17 cells immobilised on glutathione-Sepharose; conditions: 1 µM compound
T2 construct: triply transfected with full-length AMPK α1 or α2 (NH2-terminal GST fusion, pDEST27 vector); full-length AMPK α1 or α2 (NH2-terminal GST fusion, pDEST27 vector), β1 or β2 (COOH-terminal FLAG fusion, pcDNA3.1 vector); FLAG (C); made in house; host or cells: HEK293T/17 cells, transient triple transfection
T2 sequence (Q13131 whole entry, the tested form may be a part): as the sequence (Q13131 whole entry, the tested form may be a part) above
T2 sequence (O43741 whole entry, the tested form may be a part): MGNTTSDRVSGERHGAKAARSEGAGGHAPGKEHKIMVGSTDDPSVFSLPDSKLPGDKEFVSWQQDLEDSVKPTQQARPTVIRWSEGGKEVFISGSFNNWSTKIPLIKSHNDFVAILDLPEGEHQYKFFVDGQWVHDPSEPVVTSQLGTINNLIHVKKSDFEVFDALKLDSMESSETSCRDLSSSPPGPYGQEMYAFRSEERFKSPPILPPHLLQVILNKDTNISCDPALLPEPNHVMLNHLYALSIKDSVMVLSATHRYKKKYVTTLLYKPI
T2 sequence (P54619 whole entry partner, the tested form may be a part): as the sequence (P54619 whole entry partner, the tested form may be a part) above
Text: (§3) We generated a series of compounds to investigate whether modification of the SC4 2-hydroxybiphenyl LHS fragment affects isoform selectivity, some of which (MSG008-MSG011) are presented in Table 1. We also synthesised compound MSG012 (example I-3-54 [32]), which was reported to activate α2β2γ1 with ∼100-fold greater potency compared with α1β1γ1. MSG012 differs from SC4 by substitution of the 2-hydroxyphenyl LHS fragment with 3-cyclohexen-4-yl-1-carboxylic acid, and 2-methylbenzoic acid RHS fragment with 1-hydroxy-N,N-dimethylcyclohexan-4-yl-1-carboxamide. Our initial screen involved measuring the activity of recombinant human GST-AMPK complexes expressed in HEK293T/17 cells and immobilised on glutathione-Sepharose (Supplementary Figure S1). Enzyme activity was measured by radiolabelling the synthetic SAMS peptide substrate in the absence or presence of 1 µM compound. Consistent with our previous characterisation, SC4 activated α1β1γ1, α2β1γ1 and α2β2γ1 >2.3-fold, and weakly activated α1β2γ1 1.3-fold (Figure 1A). […] The γ isoform had little influence on AMPK activation by MSG011 as most γ2 and γ3 complexes were activated >2.2-fold at 1 µM, with α1β2γ2 being the only exception (1.6-fold activation). […] Accordingly, MSG010, MSG011 and MSG012 can be classified as pan AMPK activators.
as §1, §2

human GST-AMPK α2β1γ1 = molecular target: T3, human GST-AMPK α2β1γ1 (Homo sapiens, UniProt P54646+Q9Y478); test: as above; conditions: 1 µM compound
T3 construct: triply transfected with full-length AMPK α1 or α2 (NH2-terminal GST fusion, pDEST27 vector); full-length AMPK α1 or α2 (NH2-terminal GST fusion, pDEST27 vector), β1 or β2 (COOH-terminal FLAG fusion, pcDNA3.1 vector); FLAG (C); made in house; host or cells: HEK293T/17 cells, transient triple transfection
T3 sequence (P54646 whole entry, the tested form may be a part): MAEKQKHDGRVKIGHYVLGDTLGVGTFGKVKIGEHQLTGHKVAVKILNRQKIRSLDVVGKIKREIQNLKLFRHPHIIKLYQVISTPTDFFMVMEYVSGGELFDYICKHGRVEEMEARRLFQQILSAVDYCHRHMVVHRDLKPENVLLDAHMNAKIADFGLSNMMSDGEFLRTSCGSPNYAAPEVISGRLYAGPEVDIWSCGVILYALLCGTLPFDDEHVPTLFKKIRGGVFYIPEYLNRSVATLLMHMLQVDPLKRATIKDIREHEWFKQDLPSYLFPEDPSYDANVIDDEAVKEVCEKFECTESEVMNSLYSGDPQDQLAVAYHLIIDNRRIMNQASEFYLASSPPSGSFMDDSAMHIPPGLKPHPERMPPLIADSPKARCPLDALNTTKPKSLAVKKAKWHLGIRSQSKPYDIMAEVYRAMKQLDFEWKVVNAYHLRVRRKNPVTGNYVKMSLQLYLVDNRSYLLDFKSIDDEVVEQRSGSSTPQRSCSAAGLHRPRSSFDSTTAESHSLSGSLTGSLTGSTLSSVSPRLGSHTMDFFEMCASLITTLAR
T3 sequence (Q9Y478 whole entry, the tested form may be a part): as the sequence (Q9Y478 whole entry, the tested form may be a part) above
T3 sequence (P54619 whole entry partner, the tested form may be a part): as the sequence (P54619 whole entry partner, the tested form may be a part) above
Text: as §3, §1, §2

human GST-AMPK α2β2γ1 = molecular target: T4, human GST-AMPK α2β2γ1 (Homo sapiens, UniProt O43741+P54646); test: as above; conditions: 1 µM compound
T4 construct: triply transfected with full-length AMPK α1 or α2 (NH2-terminal GST fusion, pDEST27 vector); full-length AMPK α1 or α2 (NH2-terminal GST fusion, pDEST27 vector), β1 or β2 (COOH-terminal FLAG fusion, pcDNA3.1 vector); FLAG (C); made in house; host or cells: HEK293T/17 cells, transient triple transfection
T4 sequence (P54646 whole entry, the tested form may be a part): as the sequence (P54646 whole entry, the tested form may be a part) above
T4 sequence (O43741 whole entry, the tested form may be a part): as the sequence (O43741 whole entry, the tested form may be a part) above
T4 sequence (P54619 whole entry partner, the tested form may be a part): as the sequence (P54619 whole entry partner, the tested form may be a part) above
Text: as §3, §1, §2

| Max. fold activation [1] [fold] | EC50 [1] [nM] | fold AMPK activation relative to vehicle (human GST-AMPK α1β2γ1) [fold] | fold AMPK activation relative to vehicle (human GST-AMPK α2β1γ1) [fold] | fold AMPK activation relative to vehicle (human GST-AMPK α2β2γ1) [fold] | Compound |
| --- | --- | --- | --- | --- | --- |
| 1.8 | 1740 |  |  |  | O[C@@H]1CO[C@H]2[C@@H]1OC[C@H]2Oc1nc2nc(-c3ccc(-c4ccccc4)cc3)c(Cl)cc2[nH]1 [MK-8722, reference compound] |
| 2.6 | 25.2 | > 2.2 | > 2.2 | > 2.2 | CC(=O)NC1CC=C(c2ccc(-c3nc4nc(Oc5ccc(C)c(C(=O)O)c5)[nH]c4cc3Cl)cc2)CC1 (stereo not shown) [MSG011, 5-((5-(4′-Acetamido-2′,3′,4′,5′-tetrahydro-[1,1′-biphenyl]-4-yl)-6-chloro-1H-imidazo[4,5-b]pyridin-2-yl)oxy)-2-methylbenzoic acid] |
